The values that follow come from ChEMBL document CHEMBL2203054, “Synthesis and biological evaluation of a selective N- and p/q-type calcium channel agonist” (ACS Med Chem Lett, 2012).

Some results are limits rather than exact numbers.

Broadly, the EC50 is the concentration at which the effect is half-maximal.

For experiment [1], the target named is T1, Voltage-dependent N-type calcium channel subunit alpha-1B (Homo sapiens, UniProt Q00975). As to the kind of experiment: Agonist activity at N-type Cav2.2 channel expressed in tsA201 cell assessed as calcium current by whole-cell patch clamp method. Type of experiment: functional, cell-based. A general note: The patch-clamp technique gives a direct electrical read-out from membranes.
Target sequence in this assay (Q00975 whole entry): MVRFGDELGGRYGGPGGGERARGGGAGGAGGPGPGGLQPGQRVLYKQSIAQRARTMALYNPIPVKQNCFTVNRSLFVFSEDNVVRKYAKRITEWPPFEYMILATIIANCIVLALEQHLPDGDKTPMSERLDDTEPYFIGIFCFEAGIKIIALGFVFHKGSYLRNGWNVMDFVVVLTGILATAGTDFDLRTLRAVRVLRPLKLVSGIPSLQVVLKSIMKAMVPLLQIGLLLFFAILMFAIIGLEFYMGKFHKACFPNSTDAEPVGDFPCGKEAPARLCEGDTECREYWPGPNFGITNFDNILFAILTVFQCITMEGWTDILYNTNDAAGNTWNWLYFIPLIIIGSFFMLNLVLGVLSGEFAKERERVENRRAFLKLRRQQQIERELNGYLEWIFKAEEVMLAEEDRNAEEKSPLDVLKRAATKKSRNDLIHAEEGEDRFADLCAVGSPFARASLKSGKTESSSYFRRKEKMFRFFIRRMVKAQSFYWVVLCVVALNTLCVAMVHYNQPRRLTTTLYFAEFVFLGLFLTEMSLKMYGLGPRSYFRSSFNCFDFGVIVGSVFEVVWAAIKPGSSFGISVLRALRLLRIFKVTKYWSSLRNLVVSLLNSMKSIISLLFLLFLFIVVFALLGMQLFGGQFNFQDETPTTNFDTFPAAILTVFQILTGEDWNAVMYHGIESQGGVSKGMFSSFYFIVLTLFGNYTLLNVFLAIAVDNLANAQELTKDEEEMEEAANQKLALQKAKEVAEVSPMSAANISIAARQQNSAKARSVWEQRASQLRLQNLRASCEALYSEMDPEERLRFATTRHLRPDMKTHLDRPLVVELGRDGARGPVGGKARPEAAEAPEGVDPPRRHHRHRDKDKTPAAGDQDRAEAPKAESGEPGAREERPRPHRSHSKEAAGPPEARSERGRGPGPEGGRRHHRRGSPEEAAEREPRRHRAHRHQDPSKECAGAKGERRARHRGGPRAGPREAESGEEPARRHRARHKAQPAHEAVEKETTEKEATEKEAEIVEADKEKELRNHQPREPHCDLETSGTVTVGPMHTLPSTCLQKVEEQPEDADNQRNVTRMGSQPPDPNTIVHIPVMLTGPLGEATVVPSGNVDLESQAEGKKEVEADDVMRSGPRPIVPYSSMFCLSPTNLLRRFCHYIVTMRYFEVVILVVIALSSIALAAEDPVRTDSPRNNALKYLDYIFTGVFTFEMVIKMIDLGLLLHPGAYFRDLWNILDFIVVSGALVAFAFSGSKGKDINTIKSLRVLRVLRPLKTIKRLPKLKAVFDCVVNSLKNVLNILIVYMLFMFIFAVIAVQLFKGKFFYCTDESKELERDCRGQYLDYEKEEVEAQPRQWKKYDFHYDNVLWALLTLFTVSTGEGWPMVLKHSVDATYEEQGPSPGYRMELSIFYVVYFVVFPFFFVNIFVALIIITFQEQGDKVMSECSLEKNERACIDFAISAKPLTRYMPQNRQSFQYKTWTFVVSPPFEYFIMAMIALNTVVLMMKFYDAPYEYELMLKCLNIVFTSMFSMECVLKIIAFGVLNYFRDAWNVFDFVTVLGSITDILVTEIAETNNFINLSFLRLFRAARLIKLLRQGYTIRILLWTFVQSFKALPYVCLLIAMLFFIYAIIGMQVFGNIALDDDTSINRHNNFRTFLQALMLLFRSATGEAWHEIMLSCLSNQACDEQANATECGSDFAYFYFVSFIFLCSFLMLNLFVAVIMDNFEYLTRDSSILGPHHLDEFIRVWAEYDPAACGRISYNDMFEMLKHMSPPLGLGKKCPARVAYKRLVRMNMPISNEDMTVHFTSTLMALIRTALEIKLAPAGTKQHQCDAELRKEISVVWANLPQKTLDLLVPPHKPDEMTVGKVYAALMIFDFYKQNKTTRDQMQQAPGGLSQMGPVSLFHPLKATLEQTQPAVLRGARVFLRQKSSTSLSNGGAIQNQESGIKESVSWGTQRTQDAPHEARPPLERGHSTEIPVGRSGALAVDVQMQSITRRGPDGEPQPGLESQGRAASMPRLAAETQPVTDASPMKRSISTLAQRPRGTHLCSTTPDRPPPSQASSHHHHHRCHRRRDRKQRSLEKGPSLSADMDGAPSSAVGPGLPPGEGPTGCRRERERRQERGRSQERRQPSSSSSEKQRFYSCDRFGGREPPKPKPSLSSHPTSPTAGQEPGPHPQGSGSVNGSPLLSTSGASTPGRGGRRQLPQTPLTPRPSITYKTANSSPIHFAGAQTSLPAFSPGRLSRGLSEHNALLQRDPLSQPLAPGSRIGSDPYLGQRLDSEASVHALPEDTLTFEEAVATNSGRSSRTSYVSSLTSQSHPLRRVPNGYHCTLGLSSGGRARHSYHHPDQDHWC

In experiment [2] the target is T1, Voltage-dependent N-type calcium channel subunit alpha-1B. The experiment can be described thus: Ratio of (R)-roscovitine EC50 to compound EC50 for N-type Cav2.2 channel.
Target sequence in this assay (Q00975 whole entry, looked up): as the sequence (Q00975 whole entry) above
Experiment [3] deals with Cyclin-dependent kinase 1/cyclin B1 (Homo sapiens, UniProt P06493). As to the kind of experiment: Inhibition of human Cdk1/cyclin B activity. Type of experiment: protein-complex assay.
The target of experiment [4] is Mitogen-activated protein kinase 1 (Homo sapiens, UniProt P28482). As to the kind of experiment: Inhibition of human MAPK1.
The target in experiment [5] is Voltage-dependent P/Q-type calcium channel subunit alpha-1A (Homo sapiens, UniProt O00555). As to the kind of experiment: Agonist activity at P/Q-type Cav2.1 expressed in tsA201 cell assessed as calcium current by whole-cell patch clamp method. Type of experiment: functional, cell-based.
For experiment [6], the target named is Cyclin-dependent kinase 2/cyclin A (Homo sapiens, UniProt P24941). As to the kind of experiment: Inhibition of human Cdk2/cyclin A activity. The experiment is classed as protein-complex assay.
Experiment [7] deals with Myosin light chain kinase, smooth muscle (Homo sapiens, UniProt Q15746). As to the kind of experiment: Inhibition of human MLCK.
The target of experiment [8] is Cyclin-dependent kinase 5/CDK5 activator 1 (Homo sapiens, UniProt Q00535). As to the kind of experiment: Inhibition of human Cdk5/p35 activity. Type of experiment: protein-complex assay.
In experiment [9] the target is Voltage-dependent L-type calcium channel subunit alpha-1D (Homo sapiens, UniProt Q01668). As to the kind of experiment: Agonist activity at L-type Cav1.3 expressed in tsA201 cell assessed as calcium current by whole-cell patch clamp method. The experiment is classed as functional, cell-based.
Sequence of Voltage-dependent L-type calcium channel subunit alpha-1D (Q01668 whole entry): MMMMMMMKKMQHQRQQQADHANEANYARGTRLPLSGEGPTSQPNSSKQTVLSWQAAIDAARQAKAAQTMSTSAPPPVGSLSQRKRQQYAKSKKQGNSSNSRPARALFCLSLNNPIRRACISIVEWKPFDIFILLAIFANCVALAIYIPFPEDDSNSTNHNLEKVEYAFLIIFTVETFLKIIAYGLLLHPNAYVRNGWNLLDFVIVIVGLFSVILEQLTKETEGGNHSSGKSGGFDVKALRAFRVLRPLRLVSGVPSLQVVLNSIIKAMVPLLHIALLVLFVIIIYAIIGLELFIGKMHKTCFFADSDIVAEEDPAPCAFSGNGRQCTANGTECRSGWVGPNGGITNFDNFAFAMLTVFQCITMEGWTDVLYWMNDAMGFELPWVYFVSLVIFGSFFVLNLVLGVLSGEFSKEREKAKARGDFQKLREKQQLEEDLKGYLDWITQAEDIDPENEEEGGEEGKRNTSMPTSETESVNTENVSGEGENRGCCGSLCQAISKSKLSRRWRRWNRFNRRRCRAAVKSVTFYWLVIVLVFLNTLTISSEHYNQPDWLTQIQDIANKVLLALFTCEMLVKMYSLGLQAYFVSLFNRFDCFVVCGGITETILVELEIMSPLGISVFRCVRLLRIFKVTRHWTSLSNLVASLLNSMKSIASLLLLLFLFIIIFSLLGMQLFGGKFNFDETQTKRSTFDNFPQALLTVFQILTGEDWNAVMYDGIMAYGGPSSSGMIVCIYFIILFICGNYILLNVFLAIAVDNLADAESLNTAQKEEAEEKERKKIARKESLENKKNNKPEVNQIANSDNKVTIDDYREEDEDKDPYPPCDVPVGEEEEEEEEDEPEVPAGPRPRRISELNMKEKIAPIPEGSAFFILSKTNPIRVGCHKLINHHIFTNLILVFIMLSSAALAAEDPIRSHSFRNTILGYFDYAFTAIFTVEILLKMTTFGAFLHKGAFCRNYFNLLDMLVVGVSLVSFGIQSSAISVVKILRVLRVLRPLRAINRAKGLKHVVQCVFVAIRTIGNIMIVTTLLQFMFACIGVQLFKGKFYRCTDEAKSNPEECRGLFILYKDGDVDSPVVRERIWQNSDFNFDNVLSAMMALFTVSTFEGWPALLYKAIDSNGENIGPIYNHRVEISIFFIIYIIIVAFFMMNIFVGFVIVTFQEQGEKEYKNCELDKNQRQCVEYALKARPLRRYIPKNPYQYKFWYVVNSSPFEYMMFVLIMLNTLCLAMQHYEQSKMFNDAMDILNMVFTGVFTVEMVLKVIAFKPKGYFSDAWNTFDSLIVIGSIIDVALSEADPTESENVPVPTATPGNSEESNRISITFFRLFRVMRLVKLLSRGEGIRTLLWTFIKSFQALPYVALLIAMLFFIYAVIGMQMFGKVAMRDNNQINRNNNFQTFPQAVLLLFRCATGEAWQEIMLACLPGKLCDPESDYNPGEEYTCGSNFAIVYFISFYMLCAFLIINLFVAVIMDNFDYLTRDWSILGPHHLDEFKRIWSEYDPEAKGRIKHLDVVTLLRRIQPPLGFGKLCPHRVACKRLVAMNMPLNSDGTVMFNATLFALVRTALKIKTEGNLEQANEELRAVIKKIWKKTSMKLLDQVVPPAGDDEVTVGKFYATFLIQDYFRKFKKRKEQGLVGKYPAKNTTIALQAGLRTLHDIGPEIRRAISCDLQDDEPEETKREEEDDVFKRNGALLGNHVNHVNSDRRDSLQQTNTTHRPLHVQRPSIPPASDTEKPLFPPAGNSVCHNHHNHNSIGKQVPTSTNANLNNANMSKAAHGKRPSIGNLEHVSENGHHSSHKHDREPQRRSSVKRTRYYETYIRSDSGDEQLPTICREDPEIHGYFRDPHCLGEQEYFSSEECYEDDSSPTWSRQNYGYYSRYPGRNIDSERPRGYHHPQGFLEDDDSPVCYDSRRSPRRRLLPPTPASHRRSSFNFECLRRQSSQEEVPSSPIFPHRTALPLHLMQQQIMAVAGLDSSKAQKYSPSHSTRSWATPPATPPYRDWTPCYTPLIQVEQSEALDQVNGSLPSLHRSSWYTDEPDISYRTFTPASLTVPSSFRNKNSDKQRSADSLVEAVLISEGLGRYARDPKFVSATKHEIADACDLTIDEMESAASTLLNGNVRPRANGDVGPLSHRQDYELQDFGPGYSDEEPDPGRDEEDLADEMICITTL

Sequence of Mitogen-activated protein kinase 1 (P28482 whole entry): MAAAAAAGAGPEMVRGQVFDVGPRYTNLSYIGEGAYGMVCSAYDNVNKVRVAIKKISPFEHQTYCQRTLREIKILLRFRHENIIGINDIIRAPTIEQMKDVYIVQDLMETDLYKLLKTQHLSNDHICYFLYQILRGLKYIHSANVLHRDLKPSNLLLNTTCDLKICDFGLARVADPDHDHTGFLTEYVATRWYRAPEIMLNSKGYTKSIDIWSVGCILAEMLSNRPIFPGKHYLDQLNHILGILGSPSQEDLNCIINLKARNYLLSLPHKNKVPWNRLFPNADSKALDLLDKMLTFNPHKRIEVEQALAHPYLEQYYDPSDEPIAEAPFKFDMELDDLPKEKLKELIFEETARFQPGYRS

As for `CCCn1cnc2c(NCc3ccc(-c4ccccc4)cc3)nc(N[C@H](CC)CO)nc21`, the EC50 in experiment [1] was above 100 µM. Still for that read-out and setting: the result for `CCCn1cnc2c(NCCc3ccccc3)nc(N[C@H](CC)CO)nc21` reads above 100 µM. On the same count and under the same terms, the value for `CC[C@H](CO)Nc1nc(NCc2ccc(-c3ccccc3)cc2)c2ncn(C(C)C)c2n1` was above 100 µM. On the same count and under the same terms, the value for `CN(C)CCNc1nc(NCc2ccccc2)c2ncn(C)c2n1` was above 1000 µM; that for `CC(C)n1cnc2c(NCc3ccccc3)nc(NCCCO)nc21` [BOHEMINE] was above 1000 µM; that for `CCCn1cnc2c(NCc3ccc(C(F)(F)F)cc3)nc(N[C@H](CC)CO)nc21` was above 100 µM. Consider `Cn1cnc2c(NCc3ccccc3)nc(NCCO)nc21` [OLOMOUCINE], for which the EC50 in experiment [1] is above 1000 µM. The same measure, in the same setting: the result for `CC[C@H](CO)Nc1nc(NCc2ccccc2)n2ncc(C(C)C)c2n1` reads below 100 µM. With `CCCn1cnc2c(NCc3ccc(C)s3)nc(N[C@H](CC)CO)nc21`, the Ratio EC50 in experiment [2] came out at 4. In addition, the EC50 in experiment [3] was 20.6 µM; in experiment [4], above 20 µM; in [1] it was 7.21 µM; in experiment [5], 8.8 µM; in experiment [6] it was 3.29 µM; in [7], above 20 µM. Also, the EC50 in experiment [8] was 3.03 µM; in experiment [9], above 100 µM. For `CCCn1cnc2c(NC(c3ccccc3)c3ccccc3)nc(N[C@H](CC)CO)nc21`, the EC50 in [1] is above 100 µM.

`CC[C@H](CO)Nc1nc(NCCc2ccccc2)c2ncn(C)c2n1`: the EC50 in [1] is above 100 µM.

For `O=c1[nH]c2ccccc2c2[nH]c3ccc(Br)cc3c12`, in experiment [1], the EC50 was above 1000 µM. For the compound `CC[C@H](CO)Nc1nc(NCc2cccc(C(F)(F)F)c2)c2ncn(C(C)C)c2n1`, the EC50 in [1] was above 100 µM.

As to `CC[C@H](CO)Nc1nc(NCC2CC2)c2ncn(C(C)C)c2n1`, the EC50 in experiment [1] is above 100 µM.

Regarding `CCCn1cnc2c(NCc3cccnc3)nc(N[C@H](CC)CO)nc21`, the EC50 in [1] is above 100 µM. As to `CC[C@H](CO)Nc1nc(NCc2ccc(C)s2)c2ncn(C)c2n1`, the EC50 was found to be 30 µM in experiment [1] and 3.04 µM in [6]. `CC[C@H](CO)Nc1nc(NCC2CC2)c2ncn(C)c2n1`: the EC50 in experiment [1] is above 100 µM.

For `O=Nc1c(-c2c(O)[nH]c3ccccc23)[nH]c2ccccc12` [INDIRUBIN-3-MONOXIME], the EC50 in experiment [1] was above 1000 µM. The same measure, in the same setting: the result for `CCCn1cnc2c(Nc3ccccc3)nc(N[C@H](CC)CO)nc21` reads above 100 µM; that for `CC[C@H](CO)Nc1nc(NCc2ccc(C)s2)c2ncn(C(C)C)c2n1`, 11.3 µM. With `CC[C@H](CO)Nc1nc(Nc2ccccc2)c2ncn(C)c2n1`, the EC50 in experiment [1] is above 100 µM. Still for that read-out and setting: the value for `CC[C@H](CO)Nc1nc(NCc2cccnc2)c2ncn(C(C)C)c2n1` was above 100 µM; that for `CC[C@H](CO)Nc1nc(N(Cc2ccccc2)Cc2ccccc2)c2ncn(C(C)C)c2n1` was above 1000 µM. The same measure, in the same setting: the value for `CC[C@H](CO)Nc1nc(NCc2ccccc2O)c2ncn(C(C)C)c2n1` [OLOMOUCINE II] was 80 µM; that for `CC[C@H](CO)Nc1nc(NCc2cccnc2)c2ncn(C)c2n1` was above 100 µM.

`CC[C@H](CO)Nc1nc(NCc2ccccc2)c2ncn(C)c2n1`: the EC50 in experiment [1] was above 70 µM. As to `CCCn1cnc2c(NCC3CC3)nc(N[C@H](CC)CO)nc21`, the half-maximal effective concentration (EC50) was above 100 µM in experiment [1] and 3.63 µM in [6]. Regarding `CC[C@H](CO)Nc1nc(NCCc2ccccc2)c2ncn(C(C)C)c2n1`, the EC50 in experiment [1] was above 100 µM. In the case of `CC(C)n1cnc2c(NCc3ccccc3)nc(NCCO)nc21`, the EC50 in [1] was above 1000 µM. On the same count and under the same terms, the result for `CC[C@H](CO)Nc1nc(N(C)Cc2ccccc2)c2ncn(C(C)C)c2n1` reads above 1000 µM; that for `CC[C@H](CO)Nc1nc(NC(c2ccccc2)c2ccccc2)c2ncn(C(C)C)c2n1`, above 100 µM; that for `Cn1cnc2nc(NCCO)nc(NCc3ccccc3)c21`, above 1000 µM. On the same count and under the same terms, the result for `CC[C@H](CO)Nc1nc(NCc2ccc(-c3ccccc3)cc2)c2ncn(C)c2n1` reads above 100 µM; that for `CCCn1cnc2c(NCc3ccccc3)nc(N[C@H](CC)CO)nc21`, 14.2 µM; that for `CC[C@H](CO)Nc1nc(NC(c2ccccc2)c2ccccc2)c2ncn(C)c2n1`, above 100 µM.
